Reference: patent US20220087996A1, “Histone acetylase p300 inhibitor and use thereof” (HINOVA PHARMACEUTICALS INC., priority 2018, published 2022)

test system: CWR22RV1 cells; assay: Inhibition of proliferation of CWR22RV1 cells (CCK-8); type: cell-based, human; details: 6 days culture, read-out: IC50 against CWR22RV1 cells
Protocol: 1) CWR22RV1 cells were subcultured in cell culture medium, and the cells in good growth condition were seeded in a 96-well plate, 80 μL for each well, and the cell number in each well was 1500. The plate was incubated overnight in a 37° C., 5% CO2 cell incubator. 2) The drug was prepared as 30 mM stock solution with dimethyl sulfoxide (DMSO). Prior to use, the stock solution was diluted 3 times with DMSO, and then further diluted as 3-fold gradient to obtain 9 concentration gradients. Then, each concentration of compound was diluted 200 times with the culture solution (ensuring that the DMSO concentration in the culture system was 0.1%), and two replicate wells were set for each concentration. 20 μL of diluted compound solution was added to the cell culture well (with final concentrations of 10 μM, 3.3 μM. 1.1 μM . . . ), and the plate was gently shaken to mix. In addition, 3 negative control wells containing only cells and 3 blank control wells containing only culture medium were included (6 wells were each added 20 μL DMSO diluted 200 times with culture medium). 2. Result detection: (1) After culturing for 6 days, 10 μL CCK-8 was added to each well, and the plate was continually cultured in a 37° C., 5% CO2 cell incubator for 2.5 h. (2) The absorbance (OD value) was detected at 450 nm using a multifunctional microplate reader. (3) The data were analyzed by Dose-response-inhibition equation in the software GraphPad Prism6, and the IC50 value was obtained.

`CNC(=O)Nc1ccc2c(c1)CC[C@@]21OC(=O)N(CC(=O)N2C(c3ccc(F)cc3)CCC2(C)C)C1=O` (stereo partly drawn) [Example 39, 1-((R)-3′-(2-(5-(4-fluorophenyl)-2,2-dimethylpyrrolidin-1-yl)-2-oxoethyl)-2′,4′-dioxo-2,3-dihydrospiro[indene-1,5′-oxazolidine]-5-yl)-3-methylurea] gave an IC50 of 0.5 to 2 µM.

same assay, conditions: Homo sapiens, CWR22Rv1, 144 h, 6 days culture, read-out: IC50 against CWR22RV1 cells

`C[C@H]1CC[C@@H](c2ccc(F)cc2)N1C(=O)CN1C(=O)O[C@@]2(CCc3cc(NC(=O)C(F)F)ccc32)C1=O` [Example 376, 2,2-difluoro-N—((R)-3′-(2-((2S,5S)-2-(4-fluorophenyl)-5-methylpyrrolidin-1-yl)-2-oxoethyl)-2′,4′-dioxo-2,3-dihydrospiro[indene-1,5′-oxazolidine]-5-yl)acetamide] and `CNC(=O)Nc1ccc2c(c1)CC[C@@]21OC(=O)N(CC(=O)N2C(c3ccc(F)cc3)CC[C@H]2C)C1=O` (stereo partly drawn) [Example 18, 1-((R)-3′-(2-((5R)-2-(4-fluorophenyl)-5-methylpyrrolidin-1-yl)-2-oxoethyl)-2′,4′-dioxo-2,3-dihydrospiro[indene-1,5′-oxazolidine]-5-yl)-3-methylurea] cannot be ordered by IC50: 0.5 to 2 µM for the first, ≤ 0.5 µM for the second.

`CNC(=O)Nc1ccc2c(c1)CC[C@@]21OC(=O)N(CC(=O)N2C3CCC2CC3)C1=O` [Example 7, 1-((R)-3′-(2-((1S,4S)-7-azabicyclo[2.2.1]heptan-7-yl)-2-oxoethyl)-2′,4′-dioxo-2,3-dihydrospiro[indene-1,5′-oxazolidine]-5-yl)-3-methylurea] and `CNC(=O)Nc1ccc2c(c1)CC[C@@]21OC(=O)N(CC(=O)N2C3CCCC2CC3)C1=O` [Example 3] cannot be ordered by IC50: > 2 µM for the first, > 2 µM for the second.

First: CNC(=O)Nc1cc(F)c2c(c1)CC[C@]21OC(=O)N(CC(=O)N2[C@@H](C)CC[C@H]2c2ccc(F)c(F)c2)C1=O [Example 385, 1-((S)-3′-(2-((2S,5S)-2-(3,4-difluorophenyl)-5-methylpyrrolidin-1-yl)-2-oxoethyl)-7-fluoro-2′,4′-dioxo-2,3-dihydrospiro[indene-1,5′-oxazolidine]-5-yl)-3-methylurea]
Second: CNC(=O)Nc1cc(F)c2c(c1)CC[C@@]21OC(=O)N(CC(=O)N2[C@@H](C)CC[C@H]2c2ccc(F)c(F)c2)C1=O [Example 387, 1-((R)-3′-(2-((2S,5S)-2-(3,4-difluorophenyl)-5-methylpyrrolidin-1-yl)-2-oxoethyl)-7-fluoro-2′,4′-dioxo-2,3-dihydrospiro[indene-1,5′-oxazolidine]-5-yl)-3-methylurea]
The IC50 of the first is higher: > 2 µM for the first, 0.5 to 2 µM for the second.

`CNC(=O)Nc1ccc2c(c1)CC[C@@]21OC(=O)N(CC(=O)N2C[C@@H]3C[C@@H]2CO3)C1=O` [Example 103] and `CNC(=O)Nc1ccc2c(c1)CC[C@@]21OC(=O)N(CC(=O)N2CCCC3CCCCC32)C1=O` (stereo partly drawn) [Example 12, 1-methyl-3-((1R)-3′-(2-(octahydroquinolin-1-(2H)-yl)-2-oxoethyl)-2′,4′-dioxo-2,3-dihydrospiro[indene-1,5′-oxazolidine]-5-yl)urea] cannot be ordered by IC50: > 2 µM for the first, > 2 µM for the second.

Compared with `C[C@H]1CC[C@@H](c2ccc(F)cc2)N1C(=O)CN1C(=O)O[C@@]2(CCc3cc(N)ccc32)C1=O` [compound 372], `CNC(=O)Nc1ccc2c(c1)CC[C@@]21OC(=O)N(CC(=O)N2C(C)CCC2c2ccc(F)cc2)C1=O` (stereo partly drawn) [Example 348, 1-((1R)-3′-(2-(2-(4-fluorophenyl)-5-methylpyrrolidin-1-yl)-2-oxoethyl)-2′,4′-dioxo-2,3-dihydrospiro[indene-1,5′-oxazolidine]-5-yl)-3-methylurea] is lower in IC50: > 2 µM for the first, ≤ 0.5 µM for the second. The second is the more potent here.

`CNC(=O)Nc1ccc2c(c1)CC[C@@]21OC(=O)N(CC(=O)N2CCCC2c2ccc(OC)cc2OC)C1=O` (stereo partly drawn) [Example 341, 1-((1R)-3′-(2-(2-(2,4-dimethoxyphenyl)pyrrolidin-1-yl)-2-oxoethyl)-2′,4′-dioxo-2,3-dihydrospiro[indene-1,5′oxazolidin]-5-yl)-3-methylurea] and `CNC(=O)Nc1ccc2c(c1)CC[C@@]21OC(=O)N(CC(=O)N2CCC[C@H]2c2ccccc2OC)C1=O` [compound 339] cannot be ordered by IC50: > 2 µM for the first, > 2 µM for the second.

`CNC(=O)Nc1ccc2c(c1)CC[C@@]21OC(=O)N(CC(=O)N[C@]23C[C@H]4C[C@H](C[C@H](C4)C2)C3)C1=O` [Example 99] and `CNC(=O)Nc1ccc2c(c1)CCC21OC(=O)N(CC(=O)N2CCCCC23CCN(C(C)=O)CC3)C1=O` (centres unmarked) [Example 355, 1-(3′-(2-(9-acetyl-1,9--1-yl)-2-oxoethyl)-2′,4′-dioxo-2,3-dihydrospiro[indene-1,5′-oxazolidine]-5-yl)-3-methylurea] cannot be ordered by IC50: > 2 µM for the first, > 2 µM for the second.

`Cc1nnn(C)c1-c1ccc2c(c1)CC[C@@]21OC(=O)N(CC(=O)N2[C@@H](C)CC[C@H]2c2ccc(F)cc2)C1=O` [Example 221, (R)-5-(1,4-dimethyl-1H-1,2,3-triazole-5-yl)-3′-(2-((2S,5S)-2-(4-fluorophenyl)-5-methylpyrrolidin-1-yl)-2-oxoethyl)-2,3-dihydrospiro[indene-1,5′-oxazolidine]-2′,4′-dione] and `CNC(=O)Nc1ccc2c(c1)C1(CC1)CC21OC(=O)N(CC(=O)N2C(C)CCC2c2ccc(F)cc2)C1=O` (centres unmarked) [Example 97, 1-(3′-(2-(2-(4-fluorophenyl)-5-methylpyrrolidin-1-yl)-2-oxoethyl)-2′,4′-dioxo-2,3-dihydrospiro[cyclopropane-1,1′-indene-1,5′-oxazolidine]-5-yl)-3-methylurea] cannot be ordered by IC50: > 2 µM for the first, > 2 µM for the second.

`CNC(=O)Nc1ccc2c(c1)CC[C@@]21OC(=O)N(CC(=O)N2CCCC2c2ccccc2OC(F)(F)F)C1=O` (stereo partly drawn) [Example 13, 1-((1R)-2′,4′-dioxo-3′-(2-oxo-2-(2-(2-(trifluoromethoxyl)phenyl)pyrrolidin-1-yl)ethyl)-2,3-dihydrospiro[indene-1,5′-oxazolidine]-5-yl)-3-methylurea] and `CNC(=O)Nc1ccc2c(c1)CC[C@@]21OC(=O)N(CC(=O)N2CCC[C@@H]2c2ccccc2)C1=O` [Example 306, 1-((R)-2′,4′-dioxo-3′-(2-oxo-2-((R)-2-phenylpyrrolidin-1-yl)ethyl)-2,3-dihydrospiro[indene-1,5′-oxazolidine]-5-yl)-3-methylurea] cannot be ordered by IC50: > 2 µM for the first, > 2 µM for the second.

`CNC(=O)Nc1ccc2c(c1F)CC[C@]21OC(=O)N(CC(=O)N2[C@@H](C)CC[C@H]2c2ccc(F)c(F)c2)C1=O` [Example 381, 1-((S)-3′-(2-((2S,5S)-2-(3,4-difluorophenyl)-5-methylpyrrolidin-1-yl)-2-oxoethyl)-4-fluoro-2′,4′-dioxo-2,3-dihydrospiro[indene-1,5′-oxazolidine]-5-yl)-3-methylurea] and `CNC(=O)Nc1ccc2c(c1F)CC[C@]21OC(=O)N(CC(=O)N2[C@@H](C)CC[C@H]2c2cc(F)c(F)c(F)c2)C1=O` [Example 382, 1-((S)-4-fluoro-3′-(2-((2S,5S)-2-methyl-5-(3,4,5-trifluorophenyl)pyrrolidin-1-yl)-2-oxoethyl)-2′,4′-dioxo-2,3-dihydrospiro[indene-1,5′-oxazolidine]-5-yl)-3-methylurea] cannot be ordered by IC50: > 2 µM for the first, > 2 µM for the second.

`CNC(=O)Nc1ccc2c(c1)CC[C@@]21OC(=O)N(CC(=O)N2Cc3cccnc3C2)C1=O` [Example 304, (R)-1-(2′,4′-dioxo-3′-(2-oxo-2-(5H-pyrrolo[3,4-b]pyridin-6(7H)-yl)ethyl)-2,3-dihydrospiro[indene-1,5′-oxazolidine]-5-yl)-3-methylurea] and `CNC(=O)Nc1ccc2c(c1)CC[C@]21OC(=O)N(CC(=O)N2Cc3cccnc3C2)C1=O` [Example 305, (S)-1-(3′-(2-(5,7-dihydro-6H-pyrrolo[3,4-b]pyridin-6-yl)-2-oxoethyl)-2′,4′-dioxo-2,3-dihydrospiro[indene-1,5′-oxazolidine]-5-yl)-3-methylurea] cannot be ordered by IC50: > 2 µM for the first, > 2 µM for the second.

First: CNC(=O)Nc1ccc2c(c1)CC[C@@]21OC(=O)N(CC(=O)N2C(c3ccncc3)CC[C@@H]2C)C1=O (stereo partly drawn) [Example 375, 1-methyl-3-(3′-(2-((2S)-2-methyl-5-(pyridin-4-yl)pyrrolidin-1-yl)-2-oxoethyl)-2′,4′-dioxo-2,3-dihydrospiro[indene-1,5′-oxazolidine]-5-yl)urea]
Second: CNC(=O)Nc1ccc2c(c1)CC[C@@]21OC(=O)N(CC(=O)N2C(C)CCC2c2ccc(F)cc2Br)C1=O (stereo partly drawn) [Example 354, 1-((1R)-3′-(2-(2-(2-bromo-4-fluorophenyl)-5-methylpyrrolidin-1-yl)-2-oxoethyl)-2′,4′-dioxo-2,3-dihydrospiro[indene-1,5′-oxazolidine]-5-yl)-3-methylurea]
The IC50 of the first is higher: > 2 µM for the first, 0.5 to 2 µM for the second. The second is the more potent here.

`CNC(=O)Nc1ccc2c(c1)CC[C@@]21OC(=O)N(CC(=O)N2CCCc3ccc(C(F)(F)F)cc32)C1=O` [Example 300, (R)-1-(2′,4′-dioxo-3′-(2-oxo-2-(7-(trifluoromethyl)-3,4-dihydroquinolin-1(2H)-yl)ethyl)-2,3-dihydrospiro[indene-1,5′-oxazolidine]-5-yl)-3-methylurea] and `CNC(=O)Nc1ccc2c(c1)CC[C@@]21OC(=O)N(CC(=O)N2CCCC2c2ccccn2)C1=O` (stereo partly drawn) [Example 332, 1-((1R)-2′,4′-dioxo-3′-(2-oxo-2-(2-(pyridin-2-yl)pyrrolidin-1-yl)ethyl)-2,3-dihydrospiro[indene-1,5′-oxazolidine]-5-yl)-3-methylurea] cannot be ordered by IC50: > 2 µM for the first, > 2 µM for the second.

same assay, conditions: Homo sapiens, CWR22Rv1, 144 h, 6 days culture, read-out: IC50 against CWR22RV1 cells (text)

`CNC(=O)Nc1ccc2c(c1)CC[C@@]21OC(=O)N(CC(=O)N2C(c3ccc(F)cc3)CC[C@H]2C)C1=O` (stereo partly drawn) [Example 18, 1-((R)-3′-(2-((5R)-2-(4-fluorophenyl)-5-methylpyrrolidin-1-yl)-2-oxoethyl)-2′,4′-dioxo-2,3-dihydrospiro[indene-1,5′-oxazolidine]-5-yl)-3-methylurea] and `CNC(=O)Nc1ccc2c(c1)CC[C@@]21OC(=O)N(CC(=O)N2C(C)CCC2c2ccc(F)cc2)C1=O` (stereo partly drawn) [Example 348, 1-((1R)-3′-(2-(2-(4-fluorophenyl)-5-methylpyrrolidin-1-yl)-2-oxoethyl)-2′,4′-dioxo-2,3-dihydrospiro[indene-1,5′-oxazolidine]-5-yl)-3-methylurea] cannot be ordered by IC50: ≤ 0.5 µM for the first, ≤ 0.5 µM for the second.
